Measurements published in patent publication US20050187184A1, “Antineoplastic combinations” (Wyeth, priority 2001, published 2005).
Where a name gives a salt, the structure may show the parent alone.

Columns and labels:
[1] = test system: human pancreatic tumors; settings: several human pancreatic tumors in nude mice; cited from earlier work
[2] = test system: human glioblastoma cell line; settings: in vitro; cited from earlier work
[3] = test system: human tumor xenografts of diverse histological types; settings: nude mice; cited from earlier work
[4] = test system: histologically diverse tumor cells; settings: cited from earlier work
[5] = test system: breast cancer lines; settings: one of two breast cancer lines studied in vivo; cited from earlier work
[6] = test system: orthotopic glioma; settings: nude mice; cited from earlier work
[7] = test system: human colon line GC3; assay: human colon (GC3) mouse xenograft test procedure; format: in vivo; settings: gemcitabine on days 1, 4 and 8 in the first cycle
Experimental: Female CBA/CaJ mice (Jackson Laboratories, Bar Harbor, Me.), 4 weeks of age, were immune-deprived by thymectomy, followed 3 weeks later by whole-body irradiation (1200 cGy) using a ^137Cs source. Mice received 3×10^6 nucleated bone marrow cells within 6-8 h of irradiation. Tumor pieces of approximately 3 mm^3 were implanted in the space of the dorsal lateral flanks of the mice to initiate tumor growth. Tumor-bearing mice were randomized into groups of seven prior to initiating therapy. Mice bearing tumors each received drug when tumors were approximately 0.20-1 cm in diameter. Tumor size was determined at 7-day intervals using digital Vernier calipers interfaced with a computer. Tumor volumes were calculated assuming tumors to be spherical using the formula [(□/6)×d^3], where d is the mean diameter. CCI-779 was given on a schedule of 5 consecutive days for 2 weeks with this cycle repeated every 21 days for 3 cycles. […] The schedule of the other chemotherapy drug for each study was as follows: • Gemcitabine on days 1, 4, 8 in cycle 1 only The combination of CCI-779 and gemcitabine was evaluated in a human colon (GC3) mouse xenograft test procedure. In this test procedure, CCI-779 was given daily ×5 for 2 consecutive weeks every 21 days for 3 cycles and gemcitabine given on days 1, 4, and 8 in the first cycle only.

For `CO[C@H]1C[C@@H]2CC[C@@H](C)[C@@](O)(O2)C(=O)C(=O)N2CCCC[C@H]2C(=O)O[C@H]([C@H](C)C[C@@H]2CC[C@@H](OC(=O)C(C)(CO)CO)[C@H](OC)C2)CC(=O)[C@H](C)/C=C(\C)[C@@H](O)[C@@H](OC)C(=O)[C@H](C)C[C@H](C)/C=C/C=C/C=C/1C` [CCI-779, Rapamycin 42-ester with 3-hydroxy-2-(hydroxymethyl)-2-methylpropionic acid], the tumor growth [1] is listed as “inhibited”, the “growth factor (platelet-derived)-induced stimulation” value [2] is listed as “markedly suppressed” and the “activity against human tumor xenografts” value [3] is listed as “has activity”. The sensitivity of gliomas [3] was “particularly sensitive”, the “growth of tumor cells in vitro” value ([4]; CNS cancer, leukemia (T-cell), breast cancer, prostate cancer and melanoma lines among the most sensitive) was “inhibit the growth” and the cell cycle effect ([4]; in vitro) was “arrested cells in the G1 phase”. The tumor growth [5] was “inhibited” and the “activity in orthotopic glioma model” value [6] was “active”.

In the case of `Nc1ccn([C@@H]2O[C@H](CO)[C@@H](O)C2(F)F)c(=O)n1` [gemcitabine, 2′-deoxy-2′,2′-difluorocytidine monohydrochloride ((beta)-isomer)], the “tumor response in the first cycle” value [7] is reported as “tumor regression”.
